The source of these data is patent US20260022142A1, “MACROCYCLIC IMMUNOMODULATORS” (Bristol-Myers Squibb Company, priority 2022, published 2026).

Bridge positions count the residues as written; N and C are the ends. Square brackets hold non-standard residues; d marks the D form. Peptide text beside a SMILES is read from it. * marks the point of attachment. ξ: configuration not given here. Bip = N[C@@H](Cc1ccc(-c2ccccc2)cc1)C(=O)O; Phe(3-Me) = Cc1cccc(C[C@H](N)C(=O)O)c1; Cha = N[C@@H](CC1CCCCC1)C(=O)O; Thr(3ξ) = CC(O)[C@H](N)C(=O)O; Carboxymethyl = O=C(O)C*; Orn = NCCC[C@H](N)C(=O)O; Aun = NCCCCCCCCCCC(=O)O; Dab = NCC[C@H](N)C(=O)O; Dap = NC[C@H](N)C(=O)O; AEEA = NCCOCCOCC(=O)O

T1 sequence (Q15116 25-288): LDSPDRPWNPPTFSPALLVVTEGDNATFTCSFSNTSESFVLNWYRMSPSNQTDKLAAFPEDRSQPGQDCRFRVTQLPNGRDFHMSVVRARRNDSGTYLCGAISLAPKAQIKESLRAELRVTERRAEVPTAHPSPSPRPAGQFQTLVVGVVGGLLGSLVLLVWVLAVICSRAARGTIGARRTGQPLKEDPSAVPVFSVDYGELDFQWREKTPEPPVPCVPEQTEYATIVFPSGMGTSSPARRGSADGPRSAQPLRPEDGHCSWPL

The assay has as its target T1, PD-1/PD-L1 interaction (PE-labeled human PD-L1-Ig binding to Jurkat cell line over-expressing human PD-1) (Homo sapiens, UniProt Q15116).
T1 construct: expressed in transfected cells; host or cells: Jurkat
The assay can be described thus: Jurkat-PD-1 Cell Binding High-Content Screening Assay (CBA). The class given is cell-based. As to conditions: Jurkat cell line over-expressing human PD-1; PE-labeled PD-L1-Ig 20 nM final; read-out: Jurkat hPD1-PDL1 IC50. The method in brief:
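Jurkat cells stably over-expressing human PD-1 were seeded in DMEM with 10% fetal calf serum and pre-incubated with compound for 2 h at 37° C. PE-labeled human PD-L1-Ig was then added at 20 nM final for 1 hour, after which cells were fixed with paraformaldehyde, Hoechst-stained and imaged by high-content microscopy.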
What is called IC50 is the point on the concentration scale where inhibition reaches its midpoint. For `CC(C)C[C@@H]1NC(=O)[C@H](Cc2c[nH]c3ccccc23)NC(=O)[C@H](CC(=O)O)NC(=O)[C@H](Cc2ccc(OCC(=O)O)cc2)NC(=O)[C@H](CN)NC(=O)CSC[C@@H](C(=O)N[C@@H](CCN)C(=O)NCCCCCCCCCCC(=O)O)NC(=O)[C@H](CO)NC(=O)[C@H](C(C)O)NC(=O)[C@H](CC2CCCCC2)NC(=O)[C@H](CCN)NC(=O)[C@@H](CC(C)C)NC(=O)[C@H](CCCN)NC(=O)[C@H](C(C)C)NC(=O)[C@H](Cc2ccc(-c3ccccc3)cc2)NC1=O` (stereo partly drawn) [Compound 3685] ({CH2CO}-[Dap]Y(Carboxymethyl)DWL[Bip]V[Orn][dL][Dab][Cha][Thr(3ξ)]SC[Dab][Aun]-OH; thioether N-14), the IC50 was 30.2 nM. Take `CC(C)C[C@@H]1NC(=O)[C@H](Cc2c[nH]c3ccccc23)NC(=O)[C@H](CC(=O)O)NC(=O)[C@H](Cc2ccc(OCC(=O)O)cc2)NC(=O)[C@H](C(C)O)NC(=O)CSC[C@@H](C(=O)N[C@@H](CCN)C(=O)NCCCCCCCCCCC(=O)O)NC(=O)[C@H](CCCN)NC(=O)[C@H](C(C)O)NC(=O)[C@H](CC2CCCCC2)NC(=O)[C@H](CCN)NC(=O)[C@@H](CC(C)C)NC(=O)[C@H](CCCN)NC(=O)[C@H](C(C)C)NC(=O)[C@H](Cc2ccc(-c3ccccc3)cc2)NC1=O` (stereo partly drawn) [Compound 3686] ({CH2CO}-[Thr(3ξ)]Y(Carboxymethyl)DWL[Bip]V[Orn][dL][Dab][Cha][Thr(3ξ)][Orn]C[Dab][Aun]-OH; thioether N-14): the IC50 worked out at 27.6 nM. With `CC(C)C[C@@H]1NC(=O)[C@H](Cc2c[nH]c3ccccc23)NC(=O)[C@H](CC(=O)O)NC(=O)[C@H](Cc2ccc(OCC(=O)O)cc2)NC(=O)[C@H](CN)NC(=O)CSC[C@@H](C(=O)N[C@@H](CCN)C(=O)NCCCCCCCCCCC(=O)O)NC(=O)[C@H](CCCN)NC(=O)[C@H](C(C)O)NC(=O)[C@H](CC2CCCCC2)NC(=O)[C@H](CCN)NC(=O)[C@@H](CC(C)C)NC(=O)[C@H](CCCN)NC(=O)[C@H](C(C)C)NC(=O)[C@H](Cc2ccc(-c3ccccc3)cc2)NC1=O` (stereo partly drawn) [Compound 3687] ({CH2CO}-[Dap]Y(Carboxymethyl)DWL[Bip]V[Orn][dL][Dab][Cha][Thr(3ξ)][Orn]C[Dab][Aun]-OH; thioether N-14) the figure was 19.9 nM; with `CC(C)C[C@@H]1NC(=O)[C@H](Cc2c[nH]c3ccccc23)NC(=O)[C@H](CC(=O)O)NC(=O)[C@H](Cc2ccc(OCC(=O)O)cc2)NC(=O)[C@H](CN)NC(=O)CSC[C@@H](C(=O)N[C@@H](CCN)C(=O)NCCCCCCCCCCC(=O)O)NC(=O)[C@H](Cc2cnc[nH]2)NC(=O)[C@H](C(C)C)NC(=O)[C@H](CC2CCCCC2)NC(=O)[C@H](CCN)NC(=O)[C@@H](CC(C)C)NC(=O)[C@H](CCCN)NC(=O)[C@H](C(C)C)NC(=O)[C@H](Cc2ccc(-c3ccccc3)cc2)NC1=O` [Compound 3688] ({CH2CO}-[Dap]Y(Carboxymethyl)DWL[Bip]V[Orn][dL][Dab][Cha]VHC[Dab][Aun]-OH; thioether N-14), 17.3 nM. As for `CC(C)C[C@@H]1NC(=O)[C@H](Cc2c[nH]c3ccccc23)NC(=O)[C@H](CC(=O)O)NC(=O)[C@H](Cc2ccc(OCC(=O)O)cc2)NC(=O)[C@H](CN)NC(=O)CSC[C@@H](C(=O)N[C@@H](CCN)C(=O)NCCCCCCCCCCC(=O)O)NC(=O)[C@H](Cc2cnc[nH]2)NC(=O)[C@H](C(C)O)NC(=O)[C@H](CC2CCCCC2)NC(=O)[C@H](CCN)NC(=O)[C@@H](CC(C)C)NC(=O)[C@H](CCCN)NC(=O)[C@H](C(C)C)NC(=O)[C@H](Cc2ccc(-c3ccccc3)cc2)NC1=O` (stereo partly drawn) [Compound 3689] ({CH2CO}-[Dap]Y(Carboxymethyl)DWL[Bip]V[Orn][dL][Dab][Cha][Thr(3ξ)]HC[Dab][Aun]-OH; thioether N-14), the figure is 29.9 nM; as for `CC(C)C[C@@H]1NC(=O)[C@H](Cc2c[nH]c3ccccc23)NC(=O)[C@H](CC(=O)O)NC(=O)[C@H](Cc2ccc(OCC(=O)O)cc2)NC(=O)[C@H](C(C)O)NC(=O)CSC[C@@H](C(=O)N[C@@H](CCN)C(=O)NCCCCCCCCCCC(=O)O)NC(=O)[C@H](Cc2cnc[nH]2)NC(=O)[C@H](C(C)O)NC(=O)[C@H](CC2CCCCC2)NC(=O)[C@H](CCN)NC(=O)[C@@H](CC(C)C)NC(=O)[C@H](CCCN)NC(=O)[C@H](C(C)C)NC(=O)[C@H](Cc2ccc(-c3ccccc3)cc2)NC1=O` (stereo partly drawn) [Compound 3690] ({CH2CO}-[Thr(3ξ)]Y(Carboxymethyl)DWL[Bip]V[Orn][dL][Dab][Cha][Thr(3ξ)]HC[Dab][Aun]-OH; thioether N-14), 38.8 nM. On to `CC(C)C[C@@H]1NC(=O)[C@H](Cc2c[nH]c3ccccc23)NC(=O)[C@H](CC(=O)O)NC(=O)[C@H](Cc2ccc(OCC(=O)O)cc2)NC(=O)[C@H](C(C)O)NC(=O)CSC[C@@H](C(=O)NCCOCCOCC(=O)NCCCCCCCCCCC(=O)O)NC(=O)[C@H](Cc2cnc[nH]2)NC(=O)[C@H](C(C)O)NC(=O)[C@H](CC2CCCCC2)NC(=O)[C@H](CCN)NC(=O)[C@@H](CC(C)C)NC(=O)[C@H](CCCN)NC(=O)[C@H](C(C)C)NC(=O)[C@H](Cc2ccc(-c3ccccc3)cc2)NC1=O` (stereo partly drawn) [Compound 3691] ({CH2CO}-[Thr(3ξ)]Y(Carboxymethyl)DWL[Bip]V[Orn][dL][Dab][Cha][Thr(3ξ)]HC[AEEA][Aun]-OH; thioether N-14), for which the IC50 was found to be 71.3 nM.

For the compound `CC(C)C[C@@H]1NC(=O)[C@H](Cc2c[nH]c3ccccc23)NC(=O)[C@H](CC(=O)O)NC(=O)[C@H](Cc2ccc(OCC(=O)O)cc2)NC(=O)[C@H](CN)NC(=O)CSC[C@@H](C(=O)NCCOCCOCC(=O)NCCCCCCCCCCC(=O)O)NC(=O)[C@H](Cc2cnc[nH]2)NC(=O)[C@H](C(C)O)NC(=O)[C@H](CC2CCCCC2)NC(=O)[C@H](CCN)NC(=O)[C@@H](CC(C)C)NC(=O)[C@H](CCCN)NC(=O)[C@H](C(C)C)NC(=O)[C@H](Cc2ccc(-c3ccccc3)cc2)NC1=O` (stereo partly drawn) [Compound 3692] ({CH2CO}-[Dap]Y(Carboxymethyl)DWL[Bip]V[Orn][dL][Dab][Cha][Thr(3ξ)]HC[AEEA][Aun]-OH; thioether N-14), the IC50 worked out at 58.4 nM. On to `CC(C)C[C@@H]1NC(=O)[C@H](Cc2c[nH]c3ccccc23)NC(=O)[C@H](CC(=O)O)NC(=O)[C@H](Cc2ccc(OCC(=O)O)cc2)NC(=O)[C@H](CN)NC(=O)CSC[C@@H](C(=O)N[C@@H](CCN)C(=O)NCCCCCCCCCCC(=O)O)NC(=O)[C@H](CCCCN)NC(=O)[C@H](C(C)O)NC(=O)[C@H](CC2CCCCC2)NC(=O)[C@H](CCN)NC(=O)[C@@H](CC(C)C)NC(=O)[C@H](CCCN)NC(=O)[C@H](Cc2ccc(O)cc2)NC(=O)[C@H](Cc2ccc(-c3ccccc3)cc2)NC1=O` (stereo partly drawn) [Compound 3693] ({CH2CO}-[Dap]Y(Carboxymethyl)DWL[Bip]Y[Orn][dL][Dab][Cha][Thr(3ξ)]KC[Dab][Aun]-OH; thioether N-14), for which the IC50 turned out to be 59.8 nM. With `CC(C)C[C@@H]1NC(=O)[C@H](Cc2c[nH]c3ccccc23)NC(=O)[C@H](CC(=O)O)NC(=O)[C@H](Cc2ccc(OCC(=O)O)cc2)NC(=O)[C@H](C(C)O)NC(=O)CSC[C@@H](C(=O)N[C@@H](CCN)C(=O)NCCCCCCCCCCC(=O)O)NC(=O)[C@H](CCCCN)NC(=O)[C@H](C(C)O)NC(=O)[C@H](CC2CCCCC2)NC(=O)[C@H](CCN)NC(=O)[C@@H](CC(C)C)NC(=O)[C@H](CCCN)NC(=O)[C@H](Cc2ccc(O)cc2)NC(=O)[C@H](Cc2ccc(-c3ccccc3)cc2)NC1=O` (stereo partly drawn) [Compound 3694] ({CH2CO}-[Thr(3ξ)]Y(Carboxymethyl)DWL[Bip]Y[Orn][dL][Dab][Cha][Thr(3ξ)]KC[Dab][Aun]-OH; thioether N-14) the figure was 72.8 nM; with `CC(C)C[C@H]1NC(=O)[C@H](CCCN)NC(=O)[C@H](Cc2ccc(O)cc2)NC(=O)[C@H](Cc2ccc(-c3ccccc3)cc2)NC(=O)[C@H](Cc2ccc(O)cc2)NC(=O)[C@H](Cc2c[nH]c3ccccc23)NC(=O)[C@H](CC(=O)O)NC(=O)[C@H](Cc2ccc(OCC(=O)O)cc2)NC(=O)[C@H](C(C)O)NC(=O)CSC[C@@H](C(=O)N[C@@H](CCN)C(=O)NCCCCCCCCCCC(=O)O)NC(=O)[C@H](CN)NC(=O)[C@H](C(C)O)NC(=O)[C@H](CC2CCCCC2)NC(=O)[C@H](Cc2cnc[nH]2)NC1=O` (stereo partly drawn) [Compound 3695] ({CH2CO}-[Thr(3ξ)]Y(Carboxymethyl)DWY[Bip]Y[Orn][dL]H[Cha][Thr(3ξ)][Dap]C[Dab][Aun]-OH; thioether N-14), 629 nM; with `Cc1cccc(C[C@@H]2NC(=O)[C@H](CC(=O)O)NC(=O)[C@H](Cc3ccc(OCC(=O)O)cc3)NC(=O)[C@H](CN)NC(=O)CSC[C@@H](C(=O)N[C@@H](CCN)C(=O)NCCCCCCCCCCC(=O)O)NC(=O)[C@H](CO)NC(=O)[C@H](Cc3cnc[nH]3)NC(=O)[C@H](CC3CCCCC3)NC(=O)[C@H](CCN)NC(=O)[C@@H](CC(C)C)NC(=O)[C@H](CCCN)NC(=O)[C@H](Cc3ccc(OCC(=O)O)cc3)NC(=O)[C@H](Cc3ccc(-c4ccccc4)cc3)NC(=O)[C@H](Cc3ccc(OCC(=O)O)cc3)NC2=O)c1` [Compound 3696] ({CH2CO}-[Dap]Y(Carboxymethyl)D[Phe(3-Me)]Y(Carboxymethyl)[Bip]Y(Carboxymethyl)[Orn][dL][Dab][Cha]HSC[Dab][Aun]-OH; thioether N-14), 15.1 nM. Take `Cc1cccc(C[C@@H]2NC(=O)[C@H](CC(=O)O)NC(=O)[C@H](Cc3ccc(OCC(=O)O)cc3)NC(=O)[C@H](C(C)O)NC(=O)CSC[C@@H](C(=O)N[C@@H](CCN)C(=O)NCCCCCCCCCCC(=O)O)NC(=O)[C@H](CO)NC(=O)[C@H](Cc3cnc[nH]3)NC(=O)[C@H](CC3CCCCC3)NC(=O)[C@H](CCN)NC(=O)[C@@H](CC(C)C)NC(=O)[C@H](CCCN)NC(=O)[C@H](Cc3ccc(OCC(=O)O)cc3)NC(=O)[C@H](Cc3ccc(-c4ccccc4)cc3)NC(=O)[C@H](Cc3ccc(OCC(=O)O)cc3)NC2=O)c1` (stereo partly drawn) [Compound 3697] ({CH2CO}-[Thr(3ξ)]Y(Carboxymethyl)D[Phe(3-Me)]Y(Carboxymethyl)[Bip]Y(Carboxymethyl)[Orn][dL][Dab][Cha]HSC[Dab][Aun]-OH; thioether N-14): the IC50 worked out at 11.2 nM.
